Molecules are shown by their SMILES. Like-named read-outs stand apart in the source and are kept apart here.

Experiment [1] deals with T1, focal adhesion kinase (FAK) autophosphorylation at tyrosine 397 in HT29 cells (Homo sapiens, UniProt Q05397).
T1 construct: endogenous in cells; host or cells: HT29
Description: Cellular testing of FAK inhibitors: FAK autophosphorylation at tyrosine 397 in HT29 cells (Luminex-based assay). The class given is cell-based. The settings on record: 30 min serum-free. The method, then: 2. Assay Principle for Celluar Testing of FAK Inhibitors
Cellular activity of focal adhesion kinase (FAK) is determined by the degree of FAK autophosphorylation at tyrosine 397 using a Luminex-based assay. HT29 cells are plated with 30,000 cells per well of a 96-well plate in 100 μl medium (90% DMEM/10% FCS). At the following day, test compounds are added in a serial dilution under serum-free conditions for 30 min. Then, cells were lysed with 90 μl lysis buffer (20 mM Tris/HCl pH 8.0, 150 mM NaCl, 1% NP40, 10% Glycerol, 1% Phosphatase-Inhibitor II, 20 mM […]-Glycerolphosphat, 0.1% Protease-Inhibitor Cocktail III, 0.01% Benzonase) and lysates were cleared by centrifugation through a 96-well filter plate (0.65 μm). Samples were incubated with Luminex-beads which were coupled with an anti-total FAK antibody overnight at 4° C. with under gentle agitation. For detection of phospho-Y397-FAK a phosphospecific antibody and a species specific PE-labeled secondary antibody are added. The amount of phospho-Y397-FAK is determined in a Luminex100 machine measuring 100 events per well within 60 seconds.
Counts from samples treated with a FAK reference inhibitor are subtracted as pharmacological blank. Counts from samples treated with test compounds are calculated as percent of control from solvent treated (0.3% DMSO) samples. IC50 values were determined using AssayExplorer software.

Experiment [2] concerns the target T2, GST-FAK (N-terminal GST fusion with truncated human FAK (376-1052 (end) amino acids)) (Homo sapiens, UniProt Q05397).
T2 construct: truncated human FAK (376-1052 (end) amino acids)
Description: Biochemical enzyme assay for FAK activity (Caliper LC3000 mobility shift). The settings on record: 100 uM ATP. Put shortly: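 Inhibitor dose series in DMSO were incubated 90 min at 25 °C with truncated GST-tagged human FAK (0.067 ng/µl) and FITC-labelled peptide substrate (1 µM), with ATP at 100 µM and FERM peptide at 1 mM (pH 7.5 HEPES). After EDTA quench, phosphorylated and unphosphorylated peptides were resolved electrophoretically. Percent conversion was fitted for IC50.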

[3] abbreviates: Table 2, phospho-Y397-FAK, read-out: HT-29 IC50.
Setting [4] is: Table 3, phospho-Y397-FAK, read-out: HT-29 IC50.

T2 sequence (Q05397 376-1052): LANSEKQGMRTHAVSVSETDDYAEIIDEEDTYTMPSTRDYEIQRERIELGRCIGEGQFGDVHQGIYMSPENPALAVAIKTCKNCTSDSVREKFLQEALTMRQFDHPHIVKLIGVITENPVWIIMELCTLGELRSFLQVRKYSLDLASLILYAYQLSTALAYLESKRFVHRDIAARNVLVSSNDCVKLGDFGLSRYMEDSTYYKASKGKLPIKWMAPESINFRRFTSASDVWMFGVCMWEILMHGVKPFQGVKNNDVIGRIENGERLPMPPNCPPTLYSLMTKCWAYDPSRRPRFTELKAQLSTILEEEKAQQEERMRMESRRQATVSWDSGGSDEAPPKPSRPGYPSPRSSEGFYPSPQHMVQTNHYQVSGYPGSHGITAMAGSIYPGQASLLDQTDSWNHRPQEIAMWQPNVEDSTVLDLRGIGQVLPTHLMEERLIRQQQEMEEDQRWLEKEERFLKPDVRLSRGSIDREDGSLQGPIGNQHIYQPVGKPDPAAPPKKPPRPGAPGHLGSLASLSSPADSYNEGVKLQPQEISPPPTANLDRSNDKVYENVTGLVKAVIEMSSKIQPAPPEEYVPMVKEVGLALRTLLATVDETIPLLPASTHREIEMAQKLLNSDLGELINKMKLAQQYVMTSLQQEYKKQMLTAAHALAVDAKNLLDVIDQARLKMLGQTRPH
T1 sequence (Q05397 whole entry): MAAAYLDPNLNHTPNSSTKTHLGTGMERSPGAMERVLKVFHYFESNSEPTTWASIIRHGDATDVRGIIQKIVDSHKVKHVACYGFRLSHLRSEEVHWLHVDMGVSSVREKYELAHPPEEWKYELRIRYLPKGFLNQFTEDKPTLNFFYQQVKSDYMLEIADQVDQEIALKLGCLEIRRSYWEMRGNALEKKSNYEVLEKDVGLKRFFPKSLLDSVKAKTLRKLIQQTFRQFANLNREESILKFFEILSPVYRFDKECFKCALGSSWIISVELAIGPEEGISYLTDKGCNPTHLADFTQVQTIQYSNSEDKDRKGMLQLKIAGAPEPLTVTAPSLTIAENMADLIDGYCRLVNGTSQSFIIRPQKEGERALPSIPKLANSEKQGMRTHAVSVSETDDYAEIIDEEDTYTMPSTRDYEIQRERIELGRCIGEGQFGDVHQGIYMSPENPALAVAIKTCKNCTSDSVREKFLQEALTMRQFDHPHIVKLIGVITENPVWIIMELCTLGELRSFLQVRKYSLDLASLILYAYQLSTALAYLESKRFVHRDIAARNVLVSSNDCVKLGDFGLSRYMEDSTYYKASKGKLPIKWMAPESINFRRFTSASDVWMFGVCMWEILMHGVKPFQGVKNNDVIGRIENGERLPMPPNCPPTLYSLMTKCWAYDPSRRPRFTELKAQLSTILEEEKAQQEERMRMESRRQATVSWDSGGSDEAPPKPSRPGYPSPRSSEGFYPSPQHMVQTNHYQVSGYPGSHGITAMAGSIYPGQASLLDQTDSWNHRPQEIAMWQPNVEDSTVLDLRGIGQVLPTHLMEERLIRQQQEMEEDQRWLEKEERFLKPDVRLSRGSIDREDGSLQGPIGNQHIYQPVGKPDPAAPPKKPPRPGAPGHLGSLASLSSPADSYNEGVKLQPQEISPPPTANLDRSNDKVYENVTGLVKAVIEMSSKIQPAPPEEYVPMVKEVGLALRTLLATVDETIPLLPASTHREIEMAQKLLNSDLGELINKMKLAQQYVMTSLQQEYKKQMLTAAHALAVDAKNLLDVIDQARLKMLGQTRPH

As for `CN(C)CCCCNC(=O)c1cc(NCc2ccc(F)cc2F)nc(-c2cncc(C(F)(F)F)c2)n1` [Compound 53, 6-(2,4-Difluoro-benzylamino)-2-(5-trifluoromethyl-pyridin-3-yl)-pyrimidine-4-carboxylic acid (4-dimethylamino-butyl)-amide], the half-maximal inhibitory concentration (IC50) (as a rule, the concentration at which inhibition is half-maximal) was 1 to 10 µM in experiment [1] (setting [3]) and < 0.1 µM in experiment [2] (Table 2, read-out: FAK IC50).
Regarding `Nc1ncccc1-c1nccc(NCc2ccc(F)cc2F)n1` [Compound 98, 2-(2-Aminopyridin-3-yl)-N-(2,4-difluorobenzyl)pyrimidin-4-amine], the concentration for half-maximal inhibition (IC50) was > 10 µM in experiment [1] (setting [4]) and 0.1 to 1 µM in experiment [2] (Table 3, read-out: FAK IC50).
For `NC(=O)C1CCCN(C(=O)c2cc(NCc3ccc(F)cc3F)nc(-c3cncc(C(F)(F)F)c3)n2)C1` (centres unmarked) [Compound 50, 1-[6-(2,4-Difluoro-benzylamino)-2-(5-trifluoromethyl-pyridin-3-yl)-pyrimidine-4-carbonyl]-piperidine-3-carboxylic acid amide], the half-maximal inhibitory concentration (IC50) in experiment [1] (setting [3]) was 1 to 10 µM; in experiment [2] (Table 2, read-out: FAK IC50), < 0.1 µM.
For `CC(Nc1ccnc(-c2cncc(C(F)(F)F)c2)n1)c1ccccc1C(F)(F)F` (centres unmarked) [Compound 130, N-{1-[2-(Trifluoromethyl)phenyl]ethyl}-2-[5-(trifluoromethyl)pyridin-3-yl]pyrimidin-4-amine], the IC50 is > 10 µM in experiment [1] (setting [4]) and < 0.1 µM in experiment [2] (Table 3, read-out: FAK IC50).
With `CN(C)CCCNC(=O)c1cc(NCc2ccc(F)cc2F)nc(-c2cncc(C(F)(F)F)c2)n1` [Compound 45, 6-(2,4-Difluoro-benzylamino)-2-(5-trifluoromethyl-pyridin-3-yl)-pyrimidine-4-carboxylic acid (3-dimethylamino-propyl)-amide], the IC50 in experiment [1] (setting [3]) is 1 to 10 µM; in experiment [2] (Table 2, read-out: FAK IC50), < 0.1 µM.
Regarding `FC(F)(F)c1ccccc1CNc1ccnc(-c2cccnc2)n1` [Compound 89, 2-Pyridin-3-yl-N-[2-(trifluoromethyl)benzyl]pyrimidin-4-amine], the 50% inhibitory concentration (IC50) is > 10 µM in experiment [1] (setting [4]) and 0.1 to 1 µM in experiment [2] (Table 3, read-out: FAK IC50).
As to `NC(=O)C1CCN(c2cc(NCc3ccc(F)cc3F)nc(-c3cncc(C(F)(F)F)c3)n2)CC1` [Compound 59, 1-[6-(2,4-Difluoro-benzylamino)-2-(5-trifluoromethyl-pyridin-3-yl)-pyrimidin-4-yl]-piperidine-4-carboxylic acid amide], the IC50 in experiment [1] (setting [3]) was 1 to 10 µM; in experiment [2] (Table 2, read-out: FAK IC50) it was 0.1 to 1 µM.
Regarding `CN1CCC(CNC(=O)c2cc(NCc3ccc(F)cc3F)nc(-c3cncc(C(F)(F)F)c3)n2)C1` (centres unmarked) [Compound 51, 6-(2,4-Difluoro-benzylamino)-2-(5-trifluoromethyl-pyridin-3-yl)-pyrimidine-4-carboxylic acid (1-methyl-pyrrolidin-3-ylmethyl)-amide], the concentration for half-maximal inhibition (IC50) was 1 to 10 µM in experiment [1] (setting [3]) and < 0.1 µM in experiment [2] (Table 2, read-out: FAK IC50).
As for `Nc1ncccc1-c1nccc(NCc2ccc(F)cc2C(F)(F)F)n1` [Compound 110, 2-(2-Aminopyridin-3-yl)-N-[4-fluoro-2-(trifluoromethyl)benzyl]pyrimidin-4-amine], the half-inhibitory concentration (IC50) in experiment [1] (setting [4]) was 1 to 10 µM; in experiment [2] (Table 3, read-out: FAK IC50), < 0.1 µM.
For the compound `O=C(NCCCN1CCCC1=O)c1cc(NCc2ccc(F)cc2F)nc(-c2cncc(C(F)(F)F)c2)n1` [Compound 47, 6-(2,4-Difluoro-benzylamino)-2-(5-trifluoromethyl-pyridin-3-yl)-pyrimidine-4-carboxylic acid [3-(2-oxo-pyrrolidin-1-yl)-propyl]-amide], the IC50 in experiment [1] (setting [3]) is 0.1 to 1 µM; in experiment [2] (Table 2, read-out: FAK IC50), < 0.1 µM.
For the compound `O=C(NCCN1CCCC1=O)c1cc(NCc2ccc(F)cc2F)nc(-c2cncc(C(F)(F)F)c2)n1` [Compound 160, 6-[(2,4-difluorophenyl)methylamino]-N-[2-(2-oxopyrrolidin-1-yl)ethyl]-2-[5-(trifluoromethyl)-3-pyridyl]pyrimidine-4-carboxamide], the concentration for half-maximal inhibition (IC50) in experiment [1] (Table 4, phospho-Y397-FAK, read-out: IC50 HT-29) was 0.1 to 1 µM; in experiment [2] (Table 4, read-out: IC50 FAK), < 0.1 µM.
`NC(=O)CNC(=O)c1cc(NCc2ccc(F)cc2F)nc(-c2cncc(C(F)(F)F)c2)n1` [Compound 72, 6-(2,4-Difluoro-benzylamino)-2-(5-trifluoromethyl-pyridin-3-yl)-pyrimidine-4-carboxylic acid carbamoylmethyl-amide]: the half-inhibitory concentration (IC50) was 0.1 to 1 µM in experiment [1] (setting [3]) and < 0.1 µM in experiment [2] (Table 2, read-out: FAK IC50).
In the same order, the values of `O=C(NCCc1c[nH]cn1)c1cc(NCc2ccc(F)cc2F)nc(-c2cncc(C(F)(F)F)c2)n1` [Compound 52, 6-(2,4-Difluoro-benzylamino)-2-(5-trifluoromethyl-pyridin-3-yl)-pyrimidine-4-carboxylic acid [2-(1H-imidazol-4-yl)-ethyl]-amide] are 1 to 10 µM and < 0.1 µM.
Take `Fc1cncc(-c2nccc(NCc3ccccc3C(F)(F)F)n2)c1` [Compound 107, 2-(5-Fluoropyridin-3-yl)-N-[2-(trifluoromethyl)benzyl]pyrimidin-4-amine]: the IC50 is > 10 µM in experiment [1] (setting [4]) and 0.1 to 1 µM in experiment [2] (Table 3, read-out: FAK IC50).
In the same order, the values of `Nc1ncc(Cl)cc1-c1nccc(NCc2ccc(F)cc2C(F)(F)F)n1` [Compound 134, 2-(2-Amino-5-chloropyridin-3-yl)-N-[4-fluoro-2-(trifluoromethyl)benzyl]pyrimidin-4-amine] are 1 to 10 µM and < 0.1 µM.
Regarding `O=C(NCCCn1ccnc1)c1cc(NCc2ccc(F)cc2F)nc(-c2cncc(C(F)(F)F)c2)n1` [Compound 46, 6-(2,4-Difluoro-benzylamino)-2-(5-trifluoromethyl-pyridin-3-yl)-pyrimidine-4-carboxylic acid (3-imidazol-1-yl-propyl)-amide], the IC50 in experiment [1] (setting [3]) was 1 to 10 µM; in experiment [2] (Table 2, read-out: FAK IC50), < 0.1 µM.
`FC(F)(F)c1ccccc1CNc1ccnc(-c2cncc(Cl)c2)n1` [Compound 108, 2-(5-Chloropyridin-3-yl)-N-[2-(trifluoromethyl)benzyl]pyrimidin-4-amine]: the IC50 in experiment [1] (setting [4]) was 1 to 10 µM; in experiment [2] (Table 3, read-out: FAK IC50), < 0.1 µM.
As to `FC(F)(F)c1cncc(-c2nccc(NCc3ccc(Cl)cc3C(F)(F)F)n2)c1` [Compound 132, N-[4-Chloro-2-(trifluoromethyl)benzyl]-2-[5-(trifluoro-methyl)pyridin-3-yl]pyrimidin-4-amine], the concentration for half-maximal inhibition (IC50) in experiment [1] (setting [4]) is 1 to 10 µM; in experiment [2] (Table 3, read-out: FAK IC50), < 0.1 µM.
In the case of `Nc1ncc(Cl)cc1-c1nccc(NCc2ccc(F)cc2F)n1` [Compound 126, 2-(2-Amino-5-chloropyridin-3-yl)-N-(2,4-difluorobenzyl)pyrimidin-4-amine], the concentration for half-maximal inhibition (IC50) is 1 to 10 µM in experiment [1] (setting [4]) and < 0.1 µM in experiment [2] (Table 3, read-out: FAK IC50).
For `CC(Nc1ccnc(-c2cccnc2N)n1)c1ccccc1C(F)(F)F` (centres unmarked) [Compound 115, 2-(2-Aminopyridin-3-yl)-N-{1-[2-(trifluoro-methyl)phenyl]ethyl}pyrimidin-4-amine], the IC50 in experiment [1] (setting [4]) is > 10 µM; in experiment [2] (Table 3, read-out: FAK IC50), 0.1 to 1 µM.
In the case of `Nc1ncccc1-c1nccc(NCc2ccccc2C(F)(F)F)n1` [Compound 77, 2-(2-Aminopyridin-3-yl)-N-[2-(trifluoromethyl)benzyl]pyrimidin-4-amine], the 50% inhibitory concentration (IC50) in experiment [1] (setting [4]) was > 10 µM; in experiment [2] (Table 3, read-out: FAK IC50), 0.1 to 1 µM.
For `FC(F)(F)c1cncc(-c2nccc(NCc3ccccc3C(F)(F)F)n2)c1` [Compound 112, N-[2-(Trifluoromethyl)benzyl]-2-[5-(trifluoromethyl)pyridin-3-yl]pyrimidin-4-amine], in that order: 1 to 10 µM and < 0.1 µM.
For the compound `CN1CCC(NC(=O)c2cc(NCc3ccc(F)cc3F)nc(-c3cncc(C(F)(F)F)c3)n2)CC1` [Compound 54, 6-(2,4-Difluoro-benzylamino)-2-(5-trifluoromethyl-pyridin-3-yl)-pyrimidine-4-carboxylic acid (1-methyl-piperidin-4-yl)-amide], the IC50 in experiment [1] (setting [3]) was 1 to 10 µM; in experiment [2] (Table 2, read-out: FAK IC50), < 0.1 µM.
On to `CN1CCN(C(=O)CCNc2cc(NCc3ccc(F)cc3F)nc(-c3cncc(C(F)(F)F)c3)n2)CC1` [Compound 64, 3-[6-(2,4-Difluoro-benzylamino)-2-(5-trifluoromethyl-pyridin-3-yl)-pyrimidin-4-ylamino]-1-(4-methyl-piperazin-1-yl)-propan-1-one], for which the IC50 lay in the range of 1 to 10 µM in experiment [1] (setting [3]) and 0.1 to 1 µM in experiment [2] (Table 2, read-out: FAK IC50).
`CCN(CC)C(=O)CCNC(=O)c1cc(NCc2ccc(F)cc2F)nc(-c2cncc(C(F)(F)F)c2)n1` [Compound 42, 6-(2,4-Difluoro-benzylamino)-2-(5-trifluoromethyl-pyridin-3-yl)-pyrimidine-4-carboxylic acid (2-diethylcarbamoyl-ethyl)-amide]: the IC50 was 1 to 10 µM in experiment [1] (setting [3]) and < 0.1 µM in experiment [2] (Table 2, read-out: FAK IC50).
